From patent publication US20230019236A1, “PROTEIN TYROSINE PHOSPHATASE INHIBITORS AND METHODS OF USE THEREOF” (Calico Life Sciences LLC, priority 2019, published 2023)
Read-outs that look alike come from different tables or passages of the source.

What was measured:
[1] = tested on: B16F10 mouse melanoma cells; assay: B16F10 IFNγ-induced cellular growth inhibition assay; format: cell-based; conditions: for inhibition at 33 µM: Mus musculus, B16-F10, compound 33 μM, Table 3
Method: Example 294: B16F10 IFNγ-Induced Cellular Growth Inhibition Assay
B16F10 mouse melanoma cells (ATCC Cat# CRL-6475, Manassas, Va.) were seeded at a density of 500 cells per well in a 384-well clear bottom plate (Corning Cat#3765, Corning, N.Y.) in 25 μL total volume of DMEM+10% FBS (Sigma Cat# D6429 and Sigma Cat# F4135, St. Louis, MO). Cells were allowed to adhere overnight at 37° C. +5% CO2. On the following day, 12.5 μL of mouse IFNγ (RD systems Cat# 485-MI/CF, Minneapolis, Minn.) was added to half of the plate (columns 13-24) at a concentration of 2 ng/mL for a final assay concentration of 0.5 ng/mL of IFNγ. Media only (12.5 μL of DMEM+10% FBS) was added to the remainder of the plate (columns 1-12). Next, compounds resuspended in DMSO (Sigma Cat# D2650) at 100 mM were diluted in semi-log dilutions in DMSO ranging from 100 mM to 0.001 mM and DMSO only controls were included. The compound/DMSO dilutions were further diluted 1:250 in DMEM+10% FBS, and 12.5 μL of these dilutions were added in triplicates to cells of both treatment arms (with and without IFNγ). Final compound concentrations ranged from 100 μM to 0.001 μM with a final DMSO concentration of 0.1%. Compounds were only dosed in the inner 240 wells, avoiding the outer 2-well perimeter of the plate to minimize edge effects. Finally, the plate was loaded into an IncuCyte® S3 Live Cell Analysis System (Essen Bioscience-Sartorius, Ann Arbor, Mich.) maintained in a 37° C. +5% CO2 incubator, allowed to equilibrate for 2 hours, and imaged every 6 hours for 5 days. Confluence over time for compound dilutions in the presence and absence of IFNγ was measured. Growth inhibition values were obtained when the “DMSO/no IFNγ” control reached confluence >95%. At these time points, the percent growth inhibition of each compound at the indicated concentration was calculated relative to the “DMSO/with IFNγ” control.

[2] = target: T1, His tagged full-length PTP1B protein (Homo sapiens, UniProt P18031); assay: Mobility Shift Assay (MSA) used to determine potency of PTP1B inhibitors; format: biochemical; conditions: Table 2
T1 construct: made in house
T1 sequence (P18031 with tags, fused parts or gaps): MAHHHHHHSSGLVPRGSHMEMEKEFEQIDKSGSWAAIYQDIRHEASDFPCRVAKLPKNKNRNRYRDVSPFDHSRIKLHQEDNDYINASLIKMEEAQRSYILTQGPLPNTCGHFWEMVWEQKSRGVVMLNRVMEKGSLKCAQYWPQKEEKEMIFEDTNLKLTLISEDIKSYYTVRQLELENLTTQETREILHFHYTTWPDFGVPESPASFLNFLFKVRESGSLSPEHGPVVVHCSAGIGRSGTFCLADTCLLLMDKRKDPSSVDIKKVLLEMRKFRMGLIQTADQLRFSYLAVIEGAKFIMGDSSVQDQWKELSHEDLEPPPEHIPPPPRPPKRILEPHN
Method: The enzymatic assay used to determine activity is a mobility shift assay using a LabChip EZ Reader by Caliper Life Sciences. The enzymatic reaction was carried out in assay buffer (50 mM HEPES pH 7.5, 1 mM EGTA, 10 mM EDTA, 0.01% Tween® 20, and 2 mM DTT). […] The enzyme (at 0.5 nM) was incubated with compound for 10 minutes at room temperature. […] The % inhibition was then used to calculate the IC50 values.

[3] = tested on: Pan T cells isolated from C57BL6 splenocytes; assay: T cell activation assay (CD25/CD69 flow cytometry); format: cell-based, mouse; conditions: with TCR stimulation; Table 5
Method: Example 295: T cell activation and function assays
Pan T cells were isolated from C57BL6 splenocytes using a MACS Pan T cell isolation kit II (Miltenyi Biotec, Auburn, Calif.) according to the manufacturer's instructions. Isolated T cells (200,000 cells/well in a 96 well flat-bottom plate) were cultured in RPMI 1640 supplemented with 10% FBS, […] 2-mercatoethanol, 100 U/mL penicillin, and 100 μg/mL streptomycin, and incubated with the indicated concentration of compound or DMSO in duplicates. After 1 hour, mouse T cell activator CD3/CD28 Dynabeads (ThermoFisher Scientific, Waltham, Mass.) were added at a 1:5 beads to cells ratio to stimulate the T cells for 2 or 3 days as outlined below. T cells with or without compound were incubated in the absence of T cell activator beads (media only) as control.
After 2 days of stimulation, activation status of T cells was assessed by flow cytometry. T cells were first subjected to Zombie Violet™ Fixable Viability dye (BioLegend, San Diego, Calif.) for dead cell exclusion, washed and then stained with BUV805 labeled anti-CD8, APC-R700 labeled anti-CD25 (both from BD Biosciences, San Jose, Calif.) and PE labeled anti-CD69 (BioLegend, San Diego, Calif.) antibodies. After staining, cells were fixed with 2% paraformaldehyde and acquired on a BD LSRFortessa™ X-20 flow cytometer (BD Biosciences, San Jose, Calif.) using BD FACSDiva™ software. Data was analyzed using FlowJo V10 (Flow Jo LLC, Ashland, OR). Dead cells were excluded and frequencies of activated CD8 T cells was reported as the frequency of CD25+ or CD69+ cells within the CD8+ population. The expression level of CD25 and CD69 indicates the activation status of cells on a per cell basis and was evaluated by the mean fluorescence intensities (MFI) of CD25 and CD69.

[4] = tested on: MC-38 murine colon adenocarcinoma; assay: In vivo efficacy in MC38 syngeneic tumor model; conditions: 300 mg/kg/dose oral BID for 21 days
Method: All experiments were conducted in compliance with AbbVie's Institutional Animal Care and Use Committee and the National Institutes of Health Guide for Care and Use of Laboratory Animals guidelines in a facility accredited by the Association for the Assessment and Accreditation of Laboratory Animal Care. […] The mice were group-housed 10 per cage. Food and water were available ad libitum. Animals were acclimated to the animal facilities for a period of at least one week prior to commencement of experiments. Animals were tested in the light phase of a 12-hour light:12-hour dark schedule (lights on 0600 hours).
Cells were grown to passage 3 in vitro. […] The injection volume was 0.1 mL and was composed of a 1:1 mixture of S-MEM and Matrigel® (Corning, N.Y., USA). […] Following size match, treatments were initiated on the same day. […] Compound 124 was formulated in 5% DMSO, 5% Tween 80 (Polysorbate 80), 20% PEG-400 and 70% D5W (5% dextrose in water) and was dosed at 10 mL/kg. […] Tumor volume was calculated three times weekly. Measurements of the length (L) and width (W) of the tumor were taken via electronic caliper and the volume was calculated according to the following equation: V=L×W^2/2 using Study Director Version 3.1.399.22 (Studylog Systems, Inc, CA, USA). […] Reported TGIMax is the largest TGI value for any timepoint that tumors volumes were collected for that treatment group.

[5] = target: T2, His tagged PTPN2 (TC45) protein (Homo sapiens, UniProt P17706); assay: Mobility Shift Assay used to determine potency of PTPN2 inhibitors; format: biochemical; conditions: Table 2; read-out: PTPN2 MSA IC50
T2 construct: made in house
T2 sequence (P17706 with tags, fused parts or gaps isoform P17706-2): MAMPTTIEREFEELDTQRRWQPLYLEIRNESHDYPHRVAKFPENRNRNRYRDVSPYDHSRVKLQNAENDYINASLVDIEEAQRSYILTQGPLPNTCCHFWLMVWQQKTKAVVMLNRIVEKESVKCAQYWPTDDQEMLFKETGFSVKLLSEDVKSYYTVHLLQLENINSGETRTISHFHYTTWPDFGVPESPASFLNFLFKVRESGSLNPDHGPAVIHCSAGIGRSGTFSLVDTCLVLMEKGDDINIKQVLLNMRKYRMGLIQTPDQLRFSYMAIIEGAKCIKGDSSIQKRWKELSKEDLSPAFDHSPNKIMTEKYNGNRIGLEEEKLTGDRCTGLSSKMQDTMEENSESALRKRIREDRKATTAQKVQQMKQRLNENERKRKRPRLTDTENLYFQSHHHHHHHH
How it was run: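 His-tagged human PTPN2 (TC45), 0.5 nM, preincubated 10 min RT with compound (12-point, 1:3 dilution) in HEPES pH 7.5 buffer with EDTA/DTT; 2 µM OG488-labelled phospho-insulin-receptor peptide added, 10 min RT, then quenched. Dephosphorylation read by microfluidic mobility shift (ex 488/em 530 nm); IC50 from % inhibition.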

[6] = +0.5 ng/mL IFNγ, relative to DMSO/with IFNγ control, read-out: % B16F10 growth inhibition (+0.5 ng/mL IFNγ) @ 33 μM
[7] = no IFNγ, read-out: % B16F10 growth inhibition (no IFNγ) @ 33 μM

Row | SMILES | IC50 [2] [nM] | inhibition at 33 µM [1, 6] [%] | inhibition at 33 µM [1, 7] [%] | T cell activation and T cell function [3] | tolerability [4] | growth inhibition in the absence of IFNγ ([1]; absence of IFNγ) | IC50 [5] [nM]
1 | CC(C)NC(=O)Oc1ccc2cc(O)c(N3CC(=O)NS3(=O)=O)c(F)c2c1 [Compound 103, 8-fluoro-6-hydroxy-7-(1,1,4-trioxo-1λ^6,2,5-thiadiazolidin-2-yl)naphthalen-2-yl propan-2-ylcarbamate] | 10 to 100 | 60 to 90 | < 25 | – | – | – | –
2 | COc1ccc2cc(O)c(N3CC(=O)NS3(=O)=O)c(F)c2c1 [Compound 124, 5-(1-fluoro-3-hydroxy-7-methoxynaphthalen-2-yl)-1λ^6,2,5-thiadiazolidine-1,1,3-trione] | 1 to 10 | – | – | increased both T cell activation and T cell function | well tolerated, without obvious adverse health events | no observed growth inhibition | –
3 | CP(C)(=O)N1CC=C(c2ccc3cc(O)c(N4CC(=O)NS4(=O)=O)c(F)c3c2)C1 [Compound 168, 5-{7-[1-(dimethylphosphoryl)-2,5-dihydro-1H-pyrrol-3-yl]-1-fluoro-3-hydroxynaphthalen-2-yl}-1λ^6,2,5-thiadiazolidine-1,1,3-trione] | 1 to 10 | > 90 | < 25 | – | – | – | –
4 | CC(C)(O)CCOc1ccc2cc(O)c(N3CC(=O)NS3(=O)=O)c(F)c2c1 [Compound 182, 5-[1-fluoro-3-hydroxy-7-(3-hydroxy-3-methylbutoxy)naphthalen-2-yl]-1λ^6,2,5-thiadiazolidine-1,1,3-trione] | – | – | – | increased both T cell activation and T cell function | well tolerated, without obvious adverse health events | – | –
5 | O=C1CN(c2c(O)cc3ccc(CC4CCN(S(=O)(=O)C5CC5)CC4)cc3c2F)S(=O)(=O)N1 [Compound 257, 5-(7-{[1-(cyclopropanesulfonyl)piperidin-4-yl]methyl}-1-fluoro-3-hydroxynaphthalen-2-yl)-1λ^6,2,5-thiadiazolidine-1,1,3-trione] | 10 to 100 | 25 to 59 | < 25 | – | – | – | 1 to 10

Continued, in another order:

Row | IC50 [2] [nM] | SMILES | inhibition at 33 µM [1, 6] [%] | inhibition at 33 µM [1, 7] [%] | T cell activation and T cell function [3] | tolerability [4] | growth inhibition in the absence of IFNγ ([1]; absence of IFNγ) | IC50 [5] [nM]
6 | < 1 | O=C1CN(c2c(O)cc3ccc(C4=CCN(S(=O)(=O)C5CC5)C4)cc3c2F)S(=O)(=O)N1 [Compound 113, 5-{7-[1-(cyclopropanesulfonyl)-2,5-dihydro-1H-pyrrol-3-yl]-1-fluoro-3-hydroxynaphthalen-2-yl}-1λ^6,2,5-thiadiazolidine-1,1,3-trione] | – | – | increased both T cell activation and T cell function | – | – | –
7 | 1 to 10 | CC(C)(O)CCCc1ccc2cc(O)c(N3CC(=O)NS3(=O)=O)c(F)c2c1 [Compound 154, 5-[1-fluoro-3-hydroxy-7-(4-hydroxy-4-methylpentyl)naphthalen-2-yl]-1λ^6,2,5-thiadiazolidine-1,1,3-trione] | 60 to 90 | < 25 | – | – | – | < 1
8 | 10 to 100 | O=C1CN(c2c(O)cc3ccc(OC(F)F)cc3c2F)S(=O)(=O)N1 [Compound 260, 5-[7-(difluoromethoxy)-1-fluoro-3-hydroxynaphthalen-2-yl]-1λ^6,2,5-thiadiazolidine-1,1,3-trione] | – | – | increased both T cell activation and T cell function | – | – | –
